Source: US7482378B2, “Physiological cooling compositions” (Millenium Specialty Chemicals, Inc., priority 2004, dated 2009)

Legend:
[1] = Relative cooling strength of individual coolants, organoleptic sequential dilution method versus standard 10 ppm WS-3 solution in water; type: in vivo; conditions: relative to 10 ppm WS-3 in water assigned 10.0; values accepted in the art and confirmed by expert evaluation
Source text: The aqueous solutions of products for organoleptic tests were obtained by dissolving appropriate amounts of the products in propylene glycol PG and adding the PG solution to an appropriate amount of water.
A. Cooling strength values for individual coolants. Cooling strength values used in this invention for individual coolants were those generally accepted in the art and also additionally confirmed using expert evaluations conducted by Millennium Specialty Chemicals personnel on the basis of a sequential dilution method, i.e., a controlled dilution of samples to the concentration where their strength is about equal to the standard solution of WS-3. For purposes of Examples 55-60, a 10 ppm solution of WS-3 in water was used as the standard solution and was assigned a standardized cooling strength value of 10.0. The corresponding relative cooling strengths for the individual cooling agents were then assigned based upon an organoleptic determination of the approximate concentration of cooling agent that was required to provide about the same cooling strength as the standardized 10 ppm solution of WS-3.

Row | Molecule | Relative cooling strength [1] | melting point [°C]
1 | CC(C)[C@@H]1CC[C@@H](C)C[C@H]1OC(=O)CCCC(=O)O [MMG, monomenthyl glutarate] | about 3.5 | 
2 | CC1CCC(C(C)C)C(OC(=O)C(C)O)C1 (stereo not drawn) [Menthyl Lactate, l-Menthyl ester of lactic acid] | about 2.9 | 
3 | CNC(=O)C1C(C)CCCC1(C)C (stereo not shown) [N,2,2,6-Tetramethylcyclohexane-1-carboxamide] | about 1.0 | 146 to 148
4 | CCNC(=O)[C@@H]1C[C@H](C)CC[C@H]1C(C)C [WS-3, N-ethyl-3-p-menthane carboxamide] | 10.0 | 
5 | CCOC(=O)CNC(=O)C1CC(C)CCC1C(C)C (stereo not shown) [WS-5, N-(ethoxycarbonylmethyl)-3-p-menthane carboxamide] | about 16.7 | 
6 | CC(C)[C@@H]1CC[C@@H](C)C[C@H]1C(=O)NC(C)(C)C [WS-14, N-tert-butyl-3-p-menthane carboxamide] | about 5.0 | 147 to 150
7 | CNC(=O)C(C)(C(C)C)C(C)C [WS-23, N,2,3-trimethyl-2-isopropyl butanamide] | about 5.0 | 
8 | Glyceryl ether of p-menthane-3-carboxylic acid [WS-30] | about 1.5 | 
